Reference: patent US20230364153A1, “METHOD FOR DIRECT REPROGRAMMING FROM SOMATIC CELLS INTO PANCREATIC BETA CELLS BY USING MICRORNA, AND DIFFERENTIATION COMPOSITION” (Research & Business Foundation Sungkyunkwan University, priority 2020, published 2023)

Columns and labels:
[1] = test system: mouse embryonic fibroblasts (MEFs); assay: qRT-PCR of pancreatic lineage markers during three-stage direct reprogramming of MEFs; type: cell-based; conditions: stage-1 cells, single miRNA transfected, relative to the mimic (FIG. 2a)
Experimental: (§1) MEFs (5×10^4 cells/well per 12-well plate) were transfected using the jetMESSENGER (Polyplus-Transfection, Illkirch, France) reagent according to the manufacturer's instructions. The miRNA to be infected (200 nM) (QIAGEN, Hilden, Germany) was diluted in mRNA buffer and 2 μL of the jetMESSENGER reagent was added thereto. The mixture was incubated at room temperature for 20 minutes and then added to MEFs, and 24 hours thereafter, a stage-specific medium was added thereto.
For direct reprogramming of cells, knockout DMEM (KO-DMEM) (Gibco) was used as a basal medium. The knockout DMEM includes 15% knockout serum replacement (Gibco, Thermo Fisher Scientific, Inc., Waltham, MA, USA), 5% FBS (exosome depleted), 1% GlutaMax (Gibco, Thermo Fisher Scientific, Inc., Waltham, MA, USA), 1% Non-Essential Amino Acids (NEAA, Gibco, Thermo Fisher Scientific, Inc., Waltham, MA, USA), and 0.5 mM β-ME (Sigma Aldrich, Inc., Saint Louis, MO, USA).
The three-stage differentiation protocol of the present disclosure is as follows: Stage 1, differentiation from MEFs into pancreatic endoderm cells; Stage 2, differentiation of pancreatic endoderm cells into pancreatic progenitor-like cells; Stage 3, differentiation from pancreatic progenitor-like cells into beta-cell-like cells.
First, 5×10^4 MEF cells/well were seeded in a 12-well tissue culture plate of DMEM containing 10% FBS and 1×P/S for one day. The next day, a Stage 1 differentiation medium was added thereto. The Stage 1 differentiation medium contains 1 μM Bix-01294 (MedchemExpress, Monmouth Junction, NJ, USA), 280 μM 2-phospho-L-ascorbic acid (pVC) Sigma Aldrich, Inc., Saint Louis, MO, USA), and 50 ng/mL activin A (R&D Systems, Minneapolis, MI, USA). After addition of the medium, cells were maintained for 6 days. The medium used was replaced every 3 days. After 6 days, a Stage 2 differentiation medium was added for 4 days. […]
Statistical significance was determined by a two-way, paired student's t-test. […]

[2] = test system: mouse embryonic fibroblasts (MEF); assay: Proliferation / morphology of MEFs by bright field microscopy in stage-1 differentiation; type: cell-based; conditions: after 48 hours (FIG. 3c)
Experimental: FIGS. 3a to 3c confirm the proliferative ability of mouse embryonic fibroblasts (MEF) following transfection with a miRNA mimic and combinations of miRNAs (miR-127, miR-709, and miR-19b) of the present disclosure.
as §1

How did the “induction of Pdx1 expression” value [1] turn out when “miR-127: microRNA, SEQ ID NO: 1, CUGAAGCUCAGAGGGCUCUGAU” was run?
The value was 3.9 fold.

With “miR-19b: microRNA, SEQ ID NO: 5, ugugcaaauccaugcaaaacuga (UGUGCAAAUCCAUGCAAAACUGA; listed as RNA, chemistry not given here)” as the substance, how does the “induction of Pdx1 expression” value [1] read?
The value was 1.6 fold.

What about the cell proliferation [2] of the same substance?
The cell proliferation was “highest cell proliferation”.

With “miR-709: microRNA, SEQ ID NO: 2, GGAGGCAGAGGCAGGAGGA (listed as RNA, chemistry not given here)” as the substance, how does the “induction of Pdx1 expression” value [1] read?
Its value is 3.2 fold.
